Results on ten compounds are retold here after patent US20260022142A1, “MACROCYCLIC IMMUNOMODULATORS” (Bristol-Myers Squibb Company, priority 2022, published 2026).

Bridge positions count the residues as written; N and C are the ends. Square brackets hold non-standard residues; d marks the D form. Peptide text beside a SMILES is read from it. * marks the point of attachment. Bip = N[C@@H](Cc1ccc(-c2ccccc2)cc1)C(=O)O; Phe(3-Me) = Cc1cccc(C[C@H](N)C(=O)O)c1; 4Pal = N[C@@H](Cc1ccncc1)C(=O)O; Cha = N[C@@H](CC1CCCCC1)C(=O)O; Carboxymethyl = O=C(O)C*; Nle = CCCC[C@H](N)C(=O)O; Orn = NCCC[C@H](N)C(=O)O; Aun = NCCCCCCCCCCC(=O)O; Dab = NCC[C@H](N)C(=O)O; Dap = NC[C@H](N)C(=O)O; AEEA = NCCOCCOCC(=O)O

T1 sequence (Q15116 25-288): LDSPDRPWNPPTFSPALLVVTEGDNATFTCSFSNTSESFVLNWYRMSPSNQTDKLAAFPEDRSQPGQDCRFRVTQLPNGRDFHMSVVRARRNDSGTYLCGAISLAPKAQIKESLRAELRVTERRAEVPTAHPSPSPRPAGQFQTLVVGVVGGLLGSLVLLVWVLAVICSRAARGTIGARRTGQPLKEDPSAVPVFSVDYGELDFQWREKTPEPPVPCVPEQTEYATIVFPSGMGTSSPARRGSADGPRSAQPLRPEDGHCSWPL

This experiment has as its target T1, PD-1/PD-L1 interaction (PE-labeled human PD-L1-Ig binding to Jurkat cell line over-expressing human PD-1) (Homo sapiens, UniProt Q15116).
T1 construct: expressed in transfected cells; host or cells: Jurkat
The experiment can be described thus: Jurkat-PD-1 Cell Binding High-Content Screening Assay (CBA). The settings on record: Jurkat cell line over-expressing human PD-1; PE-labeled PD-L1-Ig 20 nM final; read-out: Jurkat hPD1-PDL1 IC50. Type of experiment: cell-based. The procedure, abridged:
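Jurkat cells stably over-expressing human PD-1 were seeded in DMEM with 10% fetal calf serum and pre-incubated with compound for 2 h at 37° C. PE-labeled human PD-L1-Ig was then added at 20 nM final for 1 hour, after which cells were fixed with paraformaldehyde, Hoechst-stained and imaged by high-content microscopy.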
As usually defined, the IC50 is the point on the concentration scale where inhibition reaches its midpoint. `Cc1cccc(C[C@@H]2NC(=O)[C@H](CC(=O)O)NC(=O)[C@H](Cc3ccc(OCC(=O)O)cc3)NC(=O)[C@H](Cc3ccncc3)NC(=O)CSC[C@@H](C(=O)N[C@@H](CCN)C(=O)NCCOCCOCC(=O)NCCCCCCCCCCC(=O)O)NC(=O)[C@H](CCCN)NC(=O)[C@H](C(C)C)NC(=O)[C@H](CC3CCCCC3)NC(=O)[C@H](CCN)NC(=O)[C@@H](CC(C)C)NC(=O)[C@H](CCCN)NC(=O)[C@H](Cc3ccc(O)cc3)NC(=O)[C@H](Cc3ccc(-c4ccccc4)cc3)NC(=O)[C@H](C(C)C)NC2=O)c1` [Compound 2705] ({CH2CO}-[4Pal]Y(Carboxymethyl)D[Phe(3-Me)]V[Bip]Y[Orn][dL][Dab][Cha]V[Orn]C[Dab][AEEA][Aun]-OH; thioether N-14): the IC50 is 0.0083 µM.

With `Cc1cccc(C[C@@H]2NC(=O)[C@H](CC(=O)O)NC(=O)[C@H](Cc3ccc(OCC(=O)O)cc3)NC(=O)[C@H](Cc3ccncc3)NC(=O)CSC[C@@H](C(=O)N[C@@H](CCN)C(=O)NCCCCCCCCCCC(=O)O)NC(=O)[C@H](CCCN)NC(=O)[C@H](C(C)C)NC(=O)[C@H](CC3CCCCC3)NC(=O)[C@H](CCN)NC(=O)[C@@H](CC(C)C)NC(=O)[C@H](CCCN)NC(=O)[C@H](Cc3ccc(O)cc3)NC(=O)[C@H](Cc3ccc(-c4ccccc4)cc3)NC(=O)[C@H](C(C)C)NC2=O)c1` [Compound 2706] ({CH2CO}-[4Pal]Y(Carboxymethyl)D[Phe(3-Me)]V[Bip]Y[Orn][dL][Dab][Cha]V[Orn]C[Dab][Aun]-OH; thioether N-14), the IC50 turned out to be 0.0184 µM.

As for `Cc1cccc(C[C@@H]2NC(=O)[C@H](CC(=O)O)NC(=O)[C@H](Cc3ccc(O)cc3)NC(=O)[C@H](Cc3ccncc3)NC(=O)CSC[C@@H](C(=O)N[C@@H](CCN)C(=O)NCCOCCOCC(=O)NCCCCCCCCCCC(=O)O)NC(=O)[C@H](CCCN)NC(=O)[C@H](C(C)C)NC(=O)[C@H](CC3CCCCC3)NC(=O)[C@H](CCN)NC(=O)[C@@H](CC(C)C)NC(=O)[C@H](CCCN)NC(=O)[C@H](Cc3ccc(O)cc3)NC(=O)[C@H](Cc3ccc(-c4ccccc4)cc3)NC(=O)[C@H](C(C)C)NC2=O)c1` [Compound 2707] ({CH2CO}-[4Pal]YD[Phe(3-Me)]V[Bip]Y[Orn][dL][Dab][Cha]V[Orn]C[Dab][AEEA][Aun]-OH; thioether N-14), the 50% inhibitory concentration (IC50) was 0.0208 µM.

Regarding `Cc1cccc(C[C@@H]2NC(=O)[C@H](CC(=O)O)NC(=O)[C@H](Cc3ccc(O)cc3)NC(=O)[C@H](Cc3ccncc3)NC(=O)CSC[C@@H](C(=O)N[C@@H](CCN)C(=O)NCCCCCCCCCCC(=O)O)NC(=O)[C@H](CCCN)NC(=O)[C@H](C(C)C)NC(=O)[C@H](CC3CCCCC3)NC(=O)[C@H](CCN)NC(=O)[C@@H](CC(C)C)NC(=O)[C@H](CCCN)NC(=O)[C@H](Cc3ccc(O)cc3)NC(=O)[C@H](Cc3ccc(-c4ccccc4)cc3)NC(=O)[C@H](C(C)C)NC2=O)c1` [Compound 2708] ({CH2CO}-[4Pal]YD[Phe(3-Me)]V[Bip]Y[Orn][dL][Dab][Cha]V[Orn]C[Dab][Aun]-OH; thioether N-14), the IC50 amounted to 0.0628 µM.

In the case of `Cc1cccc(C[C@@H]2NC(=O)[C@H](CC(=O)O)NC(=O)[C@H](Cc3ccncc3)NC(=O)[C@H](Cc3ccc(OCC(=O)O)cc3)NC(=O)CSC[C@@H](C(=O)N[C@@H](CCN)C(=O)NCCOCCOCC(=O)NCCCCCCCCCCC(=O)O)NC(=O)[C@H](CCCN)NC(=O)[C@H](C(C)C)NC(=O)[C@H](CC3CCCCC3)NC(=O)[C@H](CCN)NC(=O)[C@@H](CC(C)C)NC(=O)[C@H](CCCN)NC(=O)[C@H](Cc3ccc(O)cc3)NC(=O)[C@H](Cc3ccc(-c4ccccc4)cc3)NC(=O)[C@H](C(C)C)NC2=O)c1` [Compound 2709] ({CH2CO}-Y(Carboxymethyl)[4Pal]D[Phe(3-Me)]V[Bip]Y[Orn][dL][Dab][Cha]V[Orn]C[Dab][AEEA][Aun]-OH; thioether N-14), the IC50 was found to be 0.0084 µM.

`Cc1cccc(C[C@@H]2NC(=O)[C@H](CC(=O)O)NC(=O)[C@H](Cc3ccncc3)NC(=O)[C@H](Cc3ccc(OCC(=O)O)cc3)NC(=O)CSC[C@@H](C(=O)N[C@@H](CCN)C(=O)NCCCCCCCCCCC(=O)O)NC(=O)[C@H](CCCN)NC(=O)[C@H](C(C)C)NC(=O)[C@H](CC3CCCCC3)NC(=O)[C@H](CCN)NC(=O)[C@@H](CC(C)C)NC(=O)[C@H](CCCN)NC(=O)[C@H](Cc3ccc(O)cc3)NC(=O)[C@H](Cc3ccc(-c4ccccc4)cc3)NC(=O)[C@H](C(C)C)NC2=O)c1` [Compound 2710] ({CH2CO}-Y(Carboxymethyl)[4Pal]D[Phe(3-Me)]V[Bip]Y[Orn][dL][Dab][Cha]V[Orn]C[Dab][Aun]-OH; thioether N-14): the 50% inhibitory concentration (IC50) is 0.0186 µM.

As to `Cc1cccc(C[C@@H]2NC(=O)[C@H](CC(=O)O)NC(=O)[C@H](Cc3ccc(OCC(=O)O)cc3)NC(=O)[C@H](CN)NC(=O)CSC[C@@H](C(=O)N[C@@H](CCN)C(=O)NCCCCCCCCCCC(=O)O)NC(=O)[C@H]([C@@H](C)O)NC(=O)[C@H](C(C)C)NC(=O)[C@H](CC3CCCCC3)NC(=O)[C@H](CCN)NC(=O)[C@@H](CC(C)C)NC(=O)[C@H](CCCN)NC(=O)[C@H](Cc3ccc(O)cc3)NC(=O)[C@H](Cc3ccc(-c4ccccc4)cc3)NC(=O)[C@H](Cc3ccc(O)cc3)NC2=O)c1` [Compound 2711] ({CH2CO}-[Dap]Y(Carboxymethyl)D[Phe(3-Me)]Y[Bip]Y[Orn][dL][Dab][Cha]VTC[Dab][Aun]-OH; thioether N-14), the IC50 turned out to be 0.0104 µM.

Turning to `Cc1cccc(C[C@@H]2NC(=O)[C@H](CC(=O)O)NC(=O)[C@H](Cc3ccc(OCC(=O)O)cc3)NC(=O)[C@H](CN)NC(=O)CSC[C@@H](C(=O)N[C@@H](CCN)C(=O)NCCCCCCCCCCC(=O)O)NC(=O)[C@H](CO)NC(=O)[C@H](C(C)C)NC(=O)[C@H](CC3CCCCC3)NC(=O)[C@H](CCN)NC(=O)[C@@H](CC(C)C)NC(=O)[C@H](CCCN)NC(=O)[C@H](Cc3ccc(O)cc3)NC(=O)[C@H](Cc3ccc(-c4ccccc4)cc3)NC(=O)[C@H](Cc3ccc(O)cc3)NC2=O)c1` [Compound 2712] ({CH2CO}-[Dap]Y(Carboxymethyl)D[Phe(3-Me)]Y[Bip]Y[Orn][dL][Dab][Cha]VSC[Dab][Aun]-OH; thioether N-14), the IC50 came out at 0.0206 µM.

For the compound `Cc1cccc(C[C@@H]2NC(=O)[C@H](CC(=O)O)NC(=O)[C@H](Cc3ccc(OCC(=O)O)cc3)NC(=O)[C@H](CN)NC(=O)CSC[C@@H](C(=O)N[C@@H](CCN)C(=O)NCCCCCCCCCCC(=O)O)NC(=O)[C@H](CCC(N)=O)NC(=O)[C@H](C(C)C)NC(=O)[C@H](CC3CCCCC3)NC(=O)[C@H](CCN)NC(=O)[C@@H](CC(C)C)NC(=O)[C@H](CCCN)NC(=O)[C@H](Cc3ccc(O)cc3)NC(=O)[C@H](Cc3ccc(-c4ccccc4)cc3)NC(=O)[C@H](Cc3ccc(O)cc3)NC2=O)c1` [Compound 2713] ({CH2CO}-[Dap]Y(Carboxymethyl)D[Phe(3-Me)]Y[Bip]Y[Orn][dL][Dab][Cha]VQC[Dab][Aun]-OH; thioether N-14), the IC50 amounted to 0.0077 µM.

Take `CCCC[C@@H]1NC(=O)[C@H](C(C)C)NC(=O)[C@H](CC2CCCCC2)NC(=O)[C@H](CCN)NC(=O)[C@@H](CC(C)C)NC(=O)[C@H](CCCN)NC(=O)[C@H](Cc2ccc(O)cc2)NC(=O)[C@H](Cc2ccc(-c3ccccc3)cc2)NC(=O)[C@H](Cc2ccc(O)cc2)NC(=O)[C@H](Cc2cccc(C)c2)NC(=O)[C@H](CC(=O)O)NC(=O)[C@H](Cc2ccc(OCC(=O)O)cc2)NC(=O)[C@H](CN)NC(=O)CSC[C@@H](C(=O)N[C@@H](CCN)C(=O)NCCCCCCCCCCC(=O)O)NC1=O` [Compound 2714] ({CH2CO}-[Dap]Y(Carboxymethyl)D[Phe(3-Me)]Y[Bip]Y[Orn][dL][Dab][Cha]V[Nle]C[Dab][Aun]-OH; thioether N-14): the IC50 was found to be 0.406 µM.
